Laboratory results from ChEMBL document CHEMBL4706648, “Antitubercular 2-Pyrazolylpyrimidinones: Structure-Activity Relationship and Mode-of-Action Studies” (J Med Chem, 2021).
Converted amounts (≈) assume the structure as drawn.

Key:
Format in all cases: functional, H37Rv
Settings in all cases: time 7-14 day
[1] = tested on: Mycobacterium tuberculosis
[2] = tested on: Mycobacterium tuberculosis; remark: listed apart in the source
[3] = tested on: Mycobacterium tuberculosis; remark: listed apart in the source
[4] = tested on: Mycobacterium tuberculosis; remark: listed apart in the source

Row | SMILES | MIC [1] | MIC [2] | MIC [3] | MIC [4]
1 | Cc1cc(C)n(-c2nc(O)cc(-c3ccccc3)n2)n1 | 16 µM (≈ 4.26 µg/mL) | 18 µM (≈ 4.79 µg/mL) | 40 µM (≈ 10.7 µg/mL) | 1.9 µM (≈ 0.506 µg/mL)
2 | Cc1cc(Nc2ccc(F)cc2)n(-c2nc(C(F)(F)F)cc(=O)[nH]2)n1 | – | – | – | 1 µM (≈ 0.353 µg/mL)
3 | CCNc1cc(C)nn1-c1nc(-c2cccnc2)cc(=O)[nH]1 | – | 41 µM (≈ 12.1 µg/mL) | – | 5.5 µM (≈ 1.63 µg/mL)
4 | Cc1cc(C)n(-c2nc(C(F)(F)F)cc(=O)[nH]2)n1 | – | 170 µM (≈ 43.9 µg/mL) | – | 17 µM (≈ 4.39 µg/mL)
5 | CC(=O)Nc1cc(C)nn1-c1nc(-c2ccccc2)cc(=O)[nH]1 | – | – | – | 24 µM (≈ 7.42 µg/mL)
6 | COCCNc1cc(C)nn1-c1nc(C(F)(F)F)cc(=O)[nH]1 | – | 39 µM (≈ 12.4 µg/mL) | – | 1.9 µM (≈ 0.603 µg/mL)
7 | Cc1ccc(Nc2cc(C)nn2-c2nc(C)cc(O)n2)cc1 | 45 µM (≈ 13.3 µg/mL) | 55 µM (≈ 16.2 µg/mL) | 110 µM (≈ 32.5 µg/mL) | 5.4 µM (≈ 1.59 µg/mL)
